Earlier results, collected in patent US11123309B2, “Methods for drug delivery, tumor imaging, and oxidative dehydrogenation using hierarchical ZSM-5 complex” (Imam Abdulrahman Bin Faisal University, priority 2018, dated 2021).

Oc1ccc(/C=C/c2cc(O)cc(O)c2)cc1 [resveratrol, 3,5,4′ trihydroxy trans stilbene]
solubility in water: 50 microgram per ml
